Test results: patent publication US8535672B2, “Broad-spectrum in-vivo effective superantigen toxin antagonists based on the interaction between CD28 and the superantigen and uses thereof” (Yissum Research Development of the Hebrew University of …, priority 2003, dated 2013)
Entries after “also recorded” stand apart in the source; their conditions may differ. Non-standard residues stand in square brackets, D forms with d. Residues, ends and D or L forms follow the SMILES beside them. No end group written: not given here.

How the values were obtained:
[1] = system: IL2 and IFN-γ mRNA induced by SEB in human PBMC; format: cell-based
[2] = system: IL2 and IFN-γ mRNA in human PBMC; format: cell-based
[3] = mouse, in vivo
[4] = system: IL2 and IFN-γ mRNA induced by TSST-1 in human PBMC; format: cell-based
[5] = target: T1, SEB (Staphylococcus aureus, UniProt P01552); design: species or system BALB/c mice; details: mouse
[6] = system: IL10 and IL4 induced by SEB in human PBMC; format: cell-based
[7] = system: IL2 and IFN-γ mRNA induced by αCD28, αCD3, sB7-2 in human PBMC; format: cell-based
[8] = target: T2, soluble CD28 (sCD28) (Homo sapiens, UniProt P10747); format: binding
T2 construct: comprise the extracellular 37-162, 19-152, 21-141, 24-167 and 20-239 amino acid, respectively, of the mature human ligands domain; purchased R&D Systems 342-CD; host or cells: mouse myeloma NS0 cells

[9] = system: IL10 in human PBMC; format: cell-based
[10] = target: T3, sCD28 (Homo sapiens, UniProt P10747); experiment: ELISA: binding of anti-CD28 to immobilized sCD28 in presence of antagonist peptide; details: 1,000-fold diluted anti-CD28, p14A from 0.1 μg per ml
T3 construct: comprise the extracellular 37-162, 19-152, 21-141, 24-167 and 20-239 amino acid, respectively, of the mature human ligands domain; purchased R&D Systems 342-CD; host or cells: mouse myeloma NS0 cells
Protocol: An amount of 250 ng sCD28 was immobilized on an ELISA microtiter plate and binding of anti-CD28 at the two indicated dilutions (corresponding to 250 and 125 ng/ml, respectively) was measured by use of a secondary antibody coupled to alkaline phosphatase, recording absorbency at 450 nm. p14A was either absent (Control) or present at the indicated concentrations. Abbreviations: bin. (binding), Un. (units), cont. (control), ml (milliliter), μg (microgram), α (anti).
Yet another assay was devised to show a direct interaction between antagonist peptide and sCD28. The inventors developed an enzyme-linked immune sorbent assay (ELISA) in which sCD28 is immobilized in the wells of a microtiter ELISA plate and binding of anti-CD28 is measured by use of a secondary antibody coupled to alkaline phosphatase. It is seen in FIG. 16 that binding of 1,000-fold diluted anti-CD28 to the plate was inhibited by p14A even at a concentration of only 0.1 μg per ml. […] Thus, antagonist peptide p14A is a powerful inhibitor of the interaction between anti-CD28 and sCD28.

[11] = target: T3, sCD28; format: binding
[12] = target: T4, sCD28/sB7-2 (Homo sapiens, UniProt P10747); format: binding
T4 construct: comprise the extracellular 37-162, 19-152, 21-141, 24-167 and 20-239 amino acid, respectively, of the mature human ligands domain; purchased R&D Systems 342-CD (sCD28); host or cells: mouse myeloma NS0 cells

[13] = target: T5, PD-1 (Homo sapiens, UniProt Q15116); format: binding
T5 construct: comprise the extracellular 37-162, 19-152, 21-141, 24-167 and 20-239 amino acid, respectively, of the mature human ligands domain; purchased R&D Systems; host or cells: mouse myeloma NS0 cells
T5 sequence (Q15116 24-167): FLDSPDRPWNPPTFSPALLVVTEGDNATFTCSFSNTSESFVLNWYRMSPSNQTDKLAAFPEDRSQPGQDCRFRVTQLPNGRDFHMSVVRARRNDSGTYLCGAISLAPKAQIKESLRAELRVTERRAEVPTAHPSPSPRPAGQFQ

[14] = target: T1, SEB
[15] = target: T1, SEB; remark: listed apart in the source
[16] = system: p14A; format: binding

AAAAAAAAAAMYPPPY [control peptide containing another motif in the sCD28 molecule, reference compound]
antagonism of SEB-mediated induction of IL2 and IFN-γ mRNA [1]: did not show antagonist activity
induction of Th1 cytokine mRNA by the substance alone (agonist activity) [2]: Neither pTA nor AAAAAAAAAAMYPPPY (SEQ ID NO: 7) alone were active as inducer

SPMLVAYD [p2TA]
concentration without detectable toxicity, relative to that needed for protection [3]: 125 fold
toxicity of peptide alone [3]: lacked detectable toxicity
antagonism of SEB-mediated induction of IL2 and IFN-γ mRNA [1]: antagonized
inhibition of induction of IL2 and IFN-γ mRNA by TSST-1 [4]: inhibited
molar excess (ratio) over SEB at which protective in vivo [5]: 0.8 fold
mice surviving SEB challenge / group ([5]; in vivo): 8/10

SHFTHNRHGHST (Synthetic Peptide pe12)
toxicity of peptide alone [3]: lacked detectable toxicity
antagonism of SEB-mediated induction of IL2 and IFN-γ mRNA [1]: strongly inhibited
induction of Th1 cytokine mRNA by the substance alone (agonist activity) [2]: lacked superantigen agonist activity
effect on SEB-mediated induction of IL10 / IL4 (Th2 response) [6]: failed to inhibit induction of IL10
molar excess (ratio) over SEB at which protective in vivo [5]: about equimolar ratio
mice surviving SEB challenge / group ([5]; in vivo): 8/10

FHKHKNPGSPII [pc3]
toxicity of peptide alone [3]: lacked detectable toxicity
antagonism of SEB-mediated induction of IL2 and IFN-γ mRNA [1]: inhibited
induction of Th1 cytokine mRNA by the substance alone (agonist activity) [2]: lacked superantigen agonist activity
effect on SEB-mediated induction of IL10 / IL4 (Th2 response) [6]: failed to inhibit induction of IL10
molar excess (ratio) over SEB at which protective in vivo [5]: about equimolar ratio
mice surviving SEB challenge / group ([5]; in vivo): 7/10

daV Q Y N K K K A T V Q E L Dda ([dA]VQYNKKKATVQELD[dA]) [p14A]
antagonism of SEB-mediated induction of IL2 and IFN-γ mRNA [1]: blocked
effect on induction of IFN-γ mRNA by anti-CD3 alone [7]: did not inhibit
effect on induction of IFN-γ mRNA by anti-CD3 with sB7-2 [7]: abrogated
effect on induction of IFN-γ mRNA by sB7-2 alone [7]: shifted the induction by sB7-2 alone to earlier times; also recorded: stimulated induction significantly
effect on induction of IL2/IFN-γ mRNA by αCD28 alone [7]: blocked
effect on induction of IL2/IFN-γ mRNA by αCD28 and αCD3 combined [7]: eliminated virtually in full
binding to CD28 (SPR) [8]: bind directly to CD28
effect on induction of IL10 by αCD28/αCD3 [9]: resistant
effect on induction of IL-10 by sB7-2/anti-CD3 [9]: largely resistant
effect on binding of anti-CD28 to sCD28 (ELISA) [10]: inhibited
effect on plasmon resonance signal for binding of anti-CD28 to sCD28 [11]: reduced
effect on SEB-mediated induction of IL10 / IL4 (Th2 response) [6]: left induction of the Th2-type cytokines IL-10 and IL-4 intact
molar excess (ratio) over SEB at which protective in vivo [5]: 12 fold
protection from lethal SEB challenge ([5]; in vivo): 70%
effect on plasmon resonance signal for binding of sCD28 to sB7-2 [12]: enhanced significantly

CC(C)C[C@H](NC(=O)[C@H](CCC(=O)O)NC(=O)[C@H](CCC(N)=O)NC(=O)[C@@H](NC(=O)[C@@H](NC(=O)[C@H](C)NC(=O)[C@H](CCCCN)NC(=O)[C@H](CCCCN)NC(=O)[C@H](CCCCN)NC(=O)[C@H](CC(N)=O)NC(=O)[C@H](Cc1ccc(O)cc1)NC(=O)[C@@H](N)CS)[C@@H](C)O)C(C)C)C(=O)N[C@@H](CC(=O)O)C(=O)N[C@@H](CS)C(=O)O [p12C] (H-CYNKKKATVQELDC-OH)
antagonism of SEB-mediated induction of IL2 and IFN-γ mRNA [1]: as active as p14A
binding of PD-1 to immobilized peptide [13]: failed to bind significantly

YESQLCCQL (Synthetic peptide p1TC)
antagonism of SEB-mediated induction of IL2 and IFN-γ mRNA [1]: inhibited
protection of mice from lethal SEB challenge ([5]; in vivo): protected mice from lethal challenge

IHKPHHHRTPLW (Synthetic peptide pf8)
antagonism of SEB-mediated induction of IL2 and IFN-γ mRNA [1]: inhibited

AAAAAAAHVKGKHLCP [pTA]
antagonism of SEB-mediated induction of IL2 and IFN-γ mRNA [1]: blocked
effect on induction of IL2/IFN-γ mRNA by αCD28 alone [7]: inhibited
induction of Th1 cytokine mRNA by the substance alone (agonist activity) [2]: Neither pTA nor AAAAAAAAAAMYPPPY (SEQ ID NO: 7) alone were active as inducer
effect on SEB-mediated induction of IL10 / IL4 (Th2 response) [6]: left the induction of IL10 and IL4 intact

CHGHLVPKK (Synthetic scrambled control peptide p1TAsc) [scrambled form of p1TA, reference compound]
antagonism of SEB-mediated induction of IL2 and IFN-γ mRNA [1]: lacked antagonist activity
protection of mice from lethal SEB challenge ([5]; in vivo): failed to provide protection

pSEB(41-61): a peptide that lacks antagonist activity (IDQFLYFDLIYSIKDTKLGNY; UniProt P01552 68-88, looked up, fragment) [reference compound]
effect on plasmon resonance signal for binding of sCD28 to sB7-2 [12]: only slightly

PAVVLASS (Synthetic peptide p2TB)
antagonism of SEB-mediated induction of IL2 and IFN-γ mRNA [1]: inhibited
effect on SEB-mediated induction of IL10 / IL4 (Th2 response) [6]: left induction of IL10 intact
molar excess (ratio) over SEB at which protective in vivo [5]: 2 fold
protection of mice from lethal SEB challenge ([5]; in vivo): protected mice from lethal challenge

HVKGKHLCP (Synthetic peptide p1TA)
concentration without detectable toxicity, relative to that needed for protection [3]: 25 fold
toxicity of peptide alone [3]: lacked detectable toxicity
antagonism of SEB-mediated induction of IL2 and IFN-γ mRNA [1]: antagonized
inhibition of induction of IL2 and IFN-γ mRNA by TSST-1 [4]: inhibited
molar excess (ratio) over SEB at which protective in vivo [5]: 3.6 fold
mice surviving SEB challenge / group ([5]; in vivo): 7/10

YVIDPEPCP (Synthetic peptide p1TB)
antagonism of SEB-mediated induction of IL2 and IFN-γ mRNA [1]: inhibited
effect on SEB-mediated induction of IL10 / IL4 (Th2 response) [6]: left induction of IL10 intact
molar excess (ratio) over SEB at which protective in vivo [5]: 3.6 fold
protection of mice from lethal SEB challenge ([5]; in vivo): protected mice from lethal challenge

APMYHKHRLEKH (Synthetic peptide pe6)
antagonism of SEB-mediated induction of IL2 and IFN-γ mRNA [1]: inhibited

GEINGSAN (Synthetic peptide p2TC)
antagonism of SEB-mediated induction of IL2 and IFN-γ mRNA [1]: inhibited
protection of mice from lethal SEB challenge ([5]; in vivo): protected mice from lethal challenge

C-EKAKYTQLVKDN-C (CEKAKYTQLVKDNC; terminal cysteines; Sequence of artificial peptide p12Csc) [randomly scrambled p12C, reference compound]
binding to CD28 (SPR) [8]: failed to bind CD28

WHAHPHKKPVVA [pd7]
toxicity of peptide alone [3]: lacked detectable toxicity
antagonism of SEB-mediated induction of IL2 and IFN-γ mRNA [1]: inhibited
induction of Th1 cytokine mRNA by the substance alone (agonist activity) [2]: lacked superantigen agonist activity
effect on SEB-mediated induction of IL10 / IL4 (Th2 response) [6]: failed to inhibit induction of IL10
mice surviving SEB challenge / group ([5]; in vivo): 4/10

sCD28: recombinant soluble CD28: extracellular domain of human CD28 fused to His6-tagged Fc of human IgG (R&D Systems 342-CD)
inhibition of binding of anti-SEB Ab to SEB [14]: 84%
reduction of anti-SEB binding to SEB [14]: about 5 fold
antagonism of SEB-mediated induction of IL2 and IFN-γ mRNA [1]: dose-dependent manner
inhibition of SEB induction of IFN-γ mRNA [1]: about twenty fold
inhibition of SEB induction of IL-2 mRNA [1]: 3.5 fold
competition of anti-SEB Ab binding to SEB (ELISA) [15]: about 75%
effect on induction of IL2/IFN-γ mRNA by αCD28 alone [7]: inhibited
inhibition of anti-p14A Ab binding to p14A (ELISA) [16]: over 90%
induction of Th1 cytokine mRNA by the substance alone (agonist activity) [2]: did not induce IFN-γ mRNA
